Results reported in patent US20240327401A1, “FUSED RING COMPOUND, PHARMACEUTICAL COMPOSITION, AND APPLICATION THEREOF” (EVOPOINT BIOSCIENCES CO., LTD., priority 2021, published 2024).

Key:
[1] = system: ERK phosphorylation in DLD-1 cells; assay: In-cell Western blot assay for ERK phosphorylation in DLD-1 cells; assay type: cell-based; conditions: Homo sapiens, p-ERK signal corrected using DMSO and BI-3406, four-parameter fit
Procedure: Efficacy Example 1: In-cell Western Blot Assay for ERK Phosphorylation in DLD-1 Cells
DLD-1 cells (ATCC, CCL-221) were thawed and cultured in a culture medium containing RPMI1640 (Gibco, A10491-01), 10% fetal bovine serum (FBS) (Transgene, FS201-02) and 1% antibiotic P/S (Gibco, 15140-122) for 3 days until the cell viability was good. The cells were inoculated into a 384-well plate and incubated at 37° C. with 5% CO2 overnight. A test compound, a positive control compound, and a negative control were added. The compound was at concentrations of 10000 nM to 1.52 nM (3-fold dilution) and […], for a total of 10 concentrations. The mixture was well mixed and incubated at 37° C. with 5% CO2. The cells were washed twice with PBS (Solarbio, P1010), and then a blocking buffer was added. After 1 h of blocking at room temperature, a primary antibody mixture (phospho-p44/42 MAPK (T202/Y204) Rabbit mAb (CST, […]), GAPDH (D4C6R) Mouse mAb) (CST, 97166S) was added, followed by overnight incubation at 4° C. The cells were washed 3 times with PBST (PBS containing 0.05% Tween-20 (Solarbio, T8220)), and a secondary antibody mixture (goat anti rabbit 800CW (LI-COR, 926-32211), goat anti mouse 680RD (LI-COR, 926-68070)) was added, followed by incubation at room temperature in the dark. The 384-well plate was reversed and centrifuged at 1000 rpm for 1 min, and read on an Odyssey CLx fluorescence imaging system (LI-COR) to obtain fluorescence signal values, which were corrected using DMSO and BI-3406.
[formula] • H=Ave (DMSO) • L=Ave (BI-3406) • SD (H)=STDEV (DMSO) • SD (L)=STDEV (BI-3406)
The IC50 values of the compounds were calculated using a four-parameter fitting algorithm, specifically as follows:
[formula] • X: Log of cpd concentration • Y: Ave (relative pERK) • Top and Bottom: Plateaus in same units as Y • log IC50: same log units as X • HillSlope: Slope factor or Hill slope.

[2] = molecular target: T1, SOS1/KRAS G12C protein binding (Homo sapiens, UniProt Q07889); assay: Inhibition of SOS1/KRAS G12C protein binding (665 nm/615 nm ratio); conditions: 15 nM KRAS G12C (aa 1-169), 2.5 nM His-SOS1 (aa 564-1049); nonlinear regression
T1 construct: His-SOS1 (aa 564-1049) protein; purchased Pharmaron Beijing Co., Ltd. 20200717 (His-SOS1); 20200707 (KRAS G12C)
T1 sequence (Q07889 564-1049): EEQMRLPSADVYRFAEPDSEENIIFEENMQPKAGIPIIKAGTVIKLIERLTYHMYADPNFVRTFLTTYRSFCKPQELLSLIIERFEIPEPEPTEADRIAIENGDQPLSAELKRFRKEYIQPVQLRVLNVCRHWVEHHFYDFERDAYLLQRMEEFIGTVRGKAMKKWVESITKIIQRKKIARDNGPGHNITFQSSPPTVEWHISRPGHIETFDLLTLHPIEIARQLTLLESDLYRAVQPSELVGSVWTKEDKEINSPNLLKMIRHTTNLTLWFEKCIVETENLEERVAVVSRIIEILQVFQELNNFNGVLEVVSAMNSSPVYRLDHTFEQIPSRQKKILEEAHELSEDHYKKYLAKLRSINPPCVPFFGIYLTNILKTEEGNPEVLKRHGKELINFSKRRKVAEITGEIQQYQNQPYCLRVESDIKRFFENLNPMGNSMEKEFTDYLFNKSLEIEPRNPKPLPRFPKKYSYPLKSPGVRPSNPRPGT
Procedure: Efficacy Example 2: Evaluation of Inhibition of SOS1/KRAS G12C Protein Binding
A test compound was dissolved in 100% DMSO to give a solution at a concentration of 10 mM. 10 μL of the solution was taken and 3-fold diluted with 100% DMSO to prepare test compound solutions with concentrations of 10000 nM to […], for a total of 11 concentrations. The compound solutions at different concentrations were then transferred to a 384-well plate at 0.1 μL/well using a sonic droplet device Echo (Labcyte), and 2 replicate wells were set for each concentration.
A 15 nM KRAS G12C (aa 1-169) protein (Pharmaron Beijing Co., Ltd., 20200707) was transferred to the 384-well reaction plate at 5 μL/well using the sonic droplet device Echo (Labcyte), and then the reaction plate was centrifuged in a centrifuge (Eppendorf, 5810R) at 1000 rpm/min for 1 min.
A 2.5 nM His-SOS1 (aa 564-1049) protein (Pharmaron Beijing Co., Ltd., 20200717) was transferred to the 384-well reaction plate at 5 μL/well using the sonic droplet device Echo (Labcyte), and then the reaction plate was centrifuged in a centrifuge (Eppendorf, 5810R) at 1000 rpm/min for 1 min and incubated at 25° C. for 15 min.
A mixed solution of Antibody 1 (MAb Anti-6his-Tb cryptate Gold, Cisbio, 61HI2TLA) and Antibody 2 (MAb Anti-GST-XL665, Cisbio, 61GSTXLA) was transferred to the 384-well reaction plate at 10 μL/well using the sonic droplet device Echo (Labcyte), and then the reaction plate was centrifuged in a centrifuge (Eppendorf, 5810R) at 1000 rpm/min for 1 min and incubated at 25° C. for 120 min.
The 665 nm/615 nm optical density ratio was read using an Envision multifunctional microplate reader (Perkin Elmer, Envision 2104).
Analysis of Original Data:
The IC50 values of the compounds were fitted by a nonlinear regression equation of Graphpad Prism 8. The results are shown in Table 2: • Negative control: DMSO
The IC50 (half maximal inhibitory concentration) values of the compounds were calculated using the following non-linear fitting equation:
[formula] • X: Log of cpd concentration • Y: 665 nm/615 nm ratio

Row | Structure (SMILES) | IC50 [1] [nM] | IC50 [2] [nM]
1 | Cc1nc(N[C@H](C)c2cccc(C(F)F)c2F)c2cn(C3(C(F)F)CC3)c(=O)c(OCCO)c2n1 [SZ-022352] | 516 | 16
2 | COc1c(=O)n(C2(C(F)F)CC2)cc2c(N[C@H](C)c3cccc(C(F)(F)F)c3F)nc(C)nc12 [SZ-022349] | 193 | 7.23
3 | COc1c(=O)n(C2(C(F)(F)F)CC2)cc2c(N[C@H](C)c3cccc(C#N)c3C)nc(C)nc12 [SZ-022383] | 985 | 18.4
4 | COc1c(=O)n(C2(C(F)F)CC2)cc2c(N[C@H](C)c3cccc4c(F)coc34)nc(C)nc12 [SZ-022330B] | 400 | 9.99
5 | CCOc1c(=O)n(C2(C(F)F)CC2)cc2c(N[C@H](C)c3cccc(C(F)F)c3C)nc(C)nc12 [SZ-022337] | 174 | 4.14
6 | CCOc1c(=O)n(C2(CF)CC2)cc2c(N[C@H](C)c3cccc(C(C)(F)F)c3F)nc(C)nc12 [SZ-022361] | 164 | 4.62
7 | Cc1nc(N[C@H](C)c2cccc(C(F)F)c2F)c2cn(C3(C(F)F)CC3)c(=O)c(O[C@H]3CCOC3)c2n1 [SZ-022351] | 555 | 21.4
8 | CCOc1c(=O)n(C2(C(F)(F)F)CC2)cc2c(N[C@H](C)c3cccc(C(F)F)c3F)nc(C)nc12 [SZ-022362] | 77 | 12.4
9 | COc1c(=O)n(C2(C(F)(F)F)CC2)cc2c(N[C@H](C)c3cccc(C(C)(F)F)c3F)nc(C)nc12 [SZ-022358] | 222 | 4.79
10 | CCC1(n2cc3c(N[C@H](C)c4cccc(C(F)F)c4F)nc(C)nc3c(OC)c2=O)CC1 [SZ-022343] | – | 26.7
11 | COc1c(=O)n(C2(C(F)F)CC2)cc2c(N[C@H](C)c3cccc(C(C)(F)F)c3F)nc(C)nc12 [SZ-022303] | 128 | 9.77
12 | CCOc1c(=O)n(C2(C(F)(F)F)CC2)cc2c(N[C@H](C)c3cccc(C(F)(F)F)c3C)nc(C)nc12 [SZ-022340] | 367 | 15.2
13 | COc1c(=O)n(C2(CF)CC2)cc2c(N[C@H](C)c3cccc(C(C)(F)F)c3F)nc(C)nc12 [SZ-022357] | 165 | 3.68
14 | COc1c(=O)n(C2(C#N)CC2)cc2c(N[C@H](C)c3cccc(C(F)F)c3F)nc(C)nc12 [SZ-022344] | – | 23.7
15 | COc1c(=O)n(C2(C(F)F)CC2)cc2c(N[C@H](C)c3cc(N)cc(C(F)(F)F)c3)nc(C)nc12 [SZ-022327] | 153 | 5.04
16 | Cc1nc(N[C@H](C)c2cccc(C(F)(F)F)c2C)c2cn(C3(C)CC3)c(=O)c(S(C)(=O)=O)c2n1 [SZ-022371] | 274 | 21.8
17 | COc1c(=O)n(C2(C(F)F)CC2)cc2c(N[C@H](C)c3cccc(C(F)F)c3F)nc(C)nc12 [SZ-022244] | 265 | 17.8
18 | Cc1nc(N[C@H](C)c2cccc(C(F)F)c2F)c2cn(C3(C(F)F)CC3)c(=O)c(O[C@@H]3CCOC3)c2n1 [SZ-022353] | 377 | 17.5
19 | [2H]C([2H])([2H])Oc1c(=O)n(C2(C(F)(F)F)CC2)cc2c(N[C@H](C)c3cccc(C#N)c3C)nc(C)nc12 [SZ-022384] | 884 | 15.4

Row | Structure (SMILES) | IC50 [1] [nM] | IC50 [2] [nM]
20 | COc1c(=O)n(C23CC(C2)C3)cc2c(N[C@H](C)c3cccc(C(F)F)c3F)nc(C)nc12 [SZ-022345] | 885 | 21.8
21 | COc1c(=O)n(C2CC(F)(F)C2)cc2c(N[C@H](C)c3cccc(C(F)F)c3F)nc(C)nc12 [SZ-022336] | – | 36.5
22 | COc1c(=O)n(C2(C(F)(F)F)CC2)cc2c(N[C@H](C)c3cccc(C(F)F)c3F)nc(C)nc12 [SZ-022325] | 216 | 15.9
23 | Cc1nc(N[C@H](C)c2cccc(C(F)F)c2F)c2cn(C3(C(F)F)CC3)c(=O)c(OCC3CC3)c2n1 [SZ-022314] | 563 | 17.3
24 | CCOc1c(=O)n(C2(C)CC2)cc2c(N[C@H](C)c3cccc(C(C)(F)F)c3F)nc(C)nc12 [SZ-022359] | 231 | 8.57
25 | CCOc1c(=O)n(C2(C(F)F)CC2)cc2c(N[C@H](C)c3cccc(C(F)(F)F)c3C)nc(C)nc12 [SZ-022339] | 186 | 7.25
26 | Cc1nc(N[C@H](C)c2cccc(C(F)F)c2F)c2cn(C3(C(F)F)CC3)c(=O)c(OC(C)C)c2n1 [SZ-022313] | 1270 | 44
27 | CCOc1c(=O)n(C2(CF)CC2)cc2c(N[C@H](C)c3cccc(C(F)F)c3F)nc(C)nc12 [SZ-022363] | 171 | 7.36
28 | COc1c(=O)n(C2(C)CCOC2)cc2c(N[C@H](C)c3cccc(C(F)F)c3F)nc(C)nc12 (some centres unmarked) [SZ-022328] | 309 | 9.7
29 | Cc1nc(N[C@H](C)c2cccc(C(F)F)c2F)c2cn(C3(C(F)F)CC3)c(=O)c(OC3CC3)c2n1 [SZ-022299] | 751 | 22.4
30 | COc1c(=O)n(C2(C(F)F)CC2)cc2c(N[C@H](C)c3cccc(C(F)(F)CO)c3F)nc(C)nc12 [SZ-022329] | 417 | 2.63
31 | [2H]C([2H])([2H])Oc1c(=O)n(C2(C(F)(F)F)CC2)cc2c(N[C@H](C)c3cccc(C(F)F)c3F)nc(C)nc12 [SZ-022354] | 138 | 21.8
32 | COc1c(=O)n(C2(C(F)F)CC2)cc2c(N[C@H](C)c3cccc(C(C)(F)F)c3)nc(C)nc12 [SZ-022350] | 211 | 16.7
33 | CCOc1c(=O)n(C2(C)CC2)cc2c(N[C@H](C)c3cccc(C(F)F)c3F)nc(C)nc12 [SZ-022364] | 303 | 22.2
34 | COc1c(=O)n(C2(CO)CC2)cc2c(N[C@H](C)c3cccc(C(F)F)c3F)nc(C)nc12 [SZ-022347] | – | 60.1
35 | Cc1nc(N[C@H](C)c2cccc(C(F)F)c2F)c2cn(C3(C(F)F)CC3)c(=O)c(N(C)C)c2n1 [SZ-022251] | 146 | –
36 | COc1c(=O)n(C2CCN(C(=O)C3CC3)CC2)cc2c(N[C@H](C)c3cccc(C(F)F)c3F)nc(C)nc12 [SZ-022335] | – | 27.9
37 | CCS(=O)(=O)c1c(=O)n(C2(C(F)F)CC2)cc2c(N[C@H](C)c3cccc(C(F)F)c3F)nc(C)nc12 [SZ-022372] | – | 36.6
38 | COc1c(=O)n(C2CCOCC2)cc2c(N[C@H](C)c3cccc(C(F)F)c3F)nc(C)nc12 [SZ-022326] | – | 10.5
